Measurements from patent publication US11319283B2, “Substituted cyclobutylbenzene compounds as indoleamine 2,3-dioxygenase (IDO) inhibitors” (MERCK SHARP & DOHME CORP., priority 2017, dated 2022).
pIC50: −log10 of the molar value.

Target: IDO1 (Homo sapiens, UniProt P14902)
Experiment: IDO1 Cellular Assay in Hela Cells Stimulated with IFNγ
Assay type: cell-based
Parameters: endogenous in cells; host or cells: HeLa cells stimulated with IFNγ (100 ng/mL)
Conditions: Hela cells stimulated with IFNγ 100 ng/mL, 300 uM L-tryptophan, about 48 hours, fluorescence readout
Procedure: IDO1 Cellular Assay in Hela Cells Stimulated with IFNγ
Hela cells were cultured in complete Hela culture medium (90% EMEM, 10% heat-inactivated fetal bovine serum) and expanded to about 1×10^9 cells. The cells were then collected and frozen down at 1×10^7 cells/vial in 1 mL frozen medium (90% complete Hela culture medium, 10% DMSO)
Compounds to be tested were serially diluted in ten 3-fold steps in DMSO starting from 10 mM DMSO stocks in Echo low volume plate(s).
Frozen Hela cells were thawed and transferred into Hela assay medium (99% complete Hela culture medium, 1% Pen/Strep) with 20 mL medium/vial of cells. The cells were spun down at 250 g in a table top centrifuge for 5 min and suspended in same volume of Hela assay medium. The cells were then counted and adjusted to a density of 2×10^5 cells/ml in Hela assay medium. Sterile L-tryptophan were added to the cells with final concentration of 300 uM L-tryptophan. A small aliquot (2 mL/plate) of Hela cells were set aside and were not treated with IFNγ, to serve as the Max-E control.
Hela cells with and without IFNγ were dispensed to the respective wells of 384-well assay plates containing the compounds. The plates were incubated for about 48 hours at a 37° C., 5% CO2 incubator. Afterwards, […] of 0.5 M methyl isonipecotate in dimethyl sulfoxide were added into each well and the plates were sealed and incubated at 37° C. without CO2 overnight. The plates were centrifuged for 1 min at 200×g. The resulting fluorescence was measured in a Spectramax plate reader (Molecular Devices) with a 400 nm excitation filter and a 510 nm emission filter.
Potencies were calculated by linear least squares fit to the four parameter logistic IC50 equation.

Chain of IDO1 (P14902 whole entry): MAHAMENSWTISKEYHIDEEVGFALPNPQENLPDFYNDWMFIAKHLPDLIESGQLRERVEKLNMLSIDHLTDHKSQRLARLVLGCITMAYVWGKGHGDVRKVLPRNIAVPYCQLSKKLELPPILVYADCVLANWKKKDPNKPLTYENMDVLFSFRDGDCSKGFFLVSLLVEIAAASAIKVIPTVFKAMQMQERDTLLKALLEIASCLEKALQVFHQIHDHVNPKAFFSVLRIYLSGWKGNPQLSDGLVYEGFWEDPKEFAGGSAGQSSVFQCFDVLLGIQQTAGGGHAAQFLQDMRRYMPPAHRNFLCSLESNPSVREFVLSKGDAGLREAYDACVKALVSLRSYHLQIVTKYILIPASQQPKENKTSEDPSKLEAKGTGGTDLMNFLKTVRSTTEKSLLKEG

SMILES | pIC50
O=C(Nc1ccc(C2(C(=O)NC3CC(F)(F)C3)CCC2)cc1)c1cccc(Cl)c1 [Example 38, 3-chloro-N-(4-{1-[(3,3-difluorocyclobutyl)carbamoyl]cyclobutyl}phenyl) benzamide] | 7.51
CC(NC(=O)C1(c2ccc(NC(=O)c3cccc(Cl)c3)cc2)CCC1)C1CC1 (centres unmarked) [Example 41, 3-chloro-N-(4-{1-[(1-cyclopropylethyl)carbamoyl]cyclobutyl}phenyl) benzamide] | 7.00
CC(NC(=O)C1(c2ccc(NC(=O)c3cccc(Cl)c3)cc2)CCC1)C1CCCO1 (centres unmarked) [Example 43, 3-chloro-N-[4-(1-{[1-(oxolan-2-yl)ethyl]carbamoyl}cyclobutyl)phenyl]benzamide] | 6.18
O=C(Nc1ccc(C2(C(=O)NCCC(F)(F)F)CCC2)cc1)c1cccc(Cl)c1 [Example 47, 3-chloro-N-(4-{1-[(3,3,3-trifluoropropyl)carbamoyl]cyclobutyl}phenyl) benzamide] | 7.59
CCCNC(=O)C1(c2ccc(NC(=O)c3nnsc3C)cc2)CCC1 [Example 54, 5-Methyl-N-(4-(1-(propylcarbamoyl)cyclobutyl)phenyl)-1,2,3-thiadiazole-4-carboxamide] | 6.30
CCCNC(=O)C1(c2ccc(NC(=O)c3ccc(CN)cc3)cc2)CCC1 [Example 55, 4-(aminomethyl)-N-{4-[1-(propylcarbamoyl)cyclobutyl]phenyl} benzamide] | 6.21
CCCNC(=O)C1(c2ccc(NC(=O)c3coc(CC)n3)cc2)CCC1 [Example 57, 2-ethyl-N-{4-[1-(propylcarbamoyl)cyclobutyl]phenyl}-1,3-oxazole-4-carboxamide] | 5.77

Continued by rising pIC50, values first:

pIC50 | SMILES
5.70 | CCCNC(=O)C1(c2ccc(NC(=O)c3cn4ncccc4n3)cc2)CCC1 [Example 58, N-{4-[1-(propylcarbamoyl)cyclobutyl]phenyl}imidazo[1,2-b]pyridazine-2-carboxamide]
6.03 | CCCNC(=O)C1(c2ccc(NC(=O)c3cc(C)no3)cc2)CCC1 [Example 56, 3-methyl-N-{4-[1-(propylcarbamoyl)cyclobutyl]phenyl}-1,2-oxazole-5-carboxamide]
6.82 | CCNC(=O)C1(c2ccc(NC(=O)c3cccc(Cl)c3)cc2)CCC1 [Example 50]
7.32 | CCCC(=O)NC1(c2ccc(NC(=O)c3cccc(Cl)c3)cc2)CCC1 [Example 1, N-(4-(1-Butyramidocyclobutyl)phenyl)-3-chlorobenzamide]
7.47 | O=C(Nc1ccc(C2(C(=O)NC34CC(C3)C4)CCC2)cc1)c1cccc(Cl)c1 [Example 39, N-(4-{1-[(bicyclo[1.1.1]pentan-1-yl)carbamoyl]cyclobutyl}phenyl)-3-chlorobenzamide]
7.57 | O=C(Nc1ccc(C2(C(=O)NCC3CC3)CCC2)cc1)c1cccc(Cl)c1 [Example 48, 3-chloro-N-(4-{1-[(cyclopropylmethyl)carbamoyl]cyclobutyl}phenyl)benzamide]
7.89 | CC1CC1NC(=O)C1(c2ccc(NC(=O)c3cccc(Cl)c3)cc2)CCC1 (centres unmarked) [Example 46, 3-chloro-N-(4-{1-[(2-methylcyclopropyl)carbamoyl]cyclobutyl}phenyl) benzamide]
